Assay results: patent publication US20250017888A1, “COMPOUNDS FOR TREATING DISEASES ASSOCIATED WITH HYALURONAN OVERPRODUCTION” (THE ROYAL VETERINARY COLLEGE, priority 2021, published 2025)

Legend:
[1] = system: Str/ort mice; assay: Micro-CT of tibial trabecular and cortical bone in Str/ort mice; format: in vivo, mouse; settings: 10-90% of total tibial length, vs vehicle
[2] = system: bovine cartilage slices; assay: Proteoglycan shedding from bovine cartilage slices; format: cell-based; settings: Interleukin induced, one week of incubation; compared to unmodified xanthohumol
Procedure: Hyaluronan overproduction causes massive shedding of proteoglycans from cartilage. Bovine cartilage slices were cultivated in organ culture and osteoarthritic reactions were induced by addition on Interleukin and increasing concentrations of xanthohumol-betaine. The amounts of proteoglycan were determined in the cartilage slices and in the medium after one week of incubation.

[3] = system: hyaluronan export from chondrosarcoma cells; assay: Inhibition of hyaluronan export / production in chondrosarcoma cells; format: cell-based
Procedure: (§1) The hyaluronan synthase activity (Prehm, P. and Schumacher, U., Biochem. Pharmacol. 2004, 68, 1401-1410), the cytotoxicity of the drugs (O'Brien, J. et al., Eur. J. Biochem. 2000, 267, 5421-5426), proteoglycan synthesis rate, hyaluronan (Prehm, P. J. Rheumatol., 2005, 32, 690-696) and proteoglycan (Bjornsson, S. Anal. Biochem. 1993, 210, 282-291) were determined as described. The effect of the prenylflavonoids on the MRP5 export rate was measured with fluorescein diacetate as described (Schulz, T., Schumacher, U., and Prehm, P., J Biol. Chem., 2007, 282, 20999-21004). The determination of the IC50 values on the phosphodiesterase 5 was performed according to the instructions of BPS Bioscience. The culture of bovine chondrocytes in alginate beads and of explants of bovine cartilage was described previously (Deiters, B. and Prehm, P. Arthritis Res. Ther., 2008, 10, R8; Prehm, P. J. Rheumatol. 2005, 32, 690-696). Osteoarthritic reactions were induced in chondrocytes growing in alginate beads by incubation with medium containing 10 ng/ml of II-17 for 6 days, and in cartilage explants with 10 ng/ml of II-17 and 5 ng/ml of II-1α. The supernatants were withdrawn and stored at −20° C. for later analysis. The explants were weighed and extracted with 1 ml of 4 M guanidinium-HCl for 72 hours at 4° C. The proteoglycan concentrations were determined in the extracts.
Chondrosarcoma cells were plated on a 96 well microtiter plate and in the presence of increasing flavonoid concentrations. After 2 days the concentration of hyaluronan was determined in the culture supernatant.

[4] = system: chondrosarcoma cells (SW1353); assay: Alamar blue staining of chondrosarcoma; format: cell-based; settings: Homo sapiens
Procedure: as §1
Chondrosarcoma cells (SW1353 from the American Type Culture Collection) were grown in Dulbecco's medium supplemented with streptomycin/penicillin (100 units of each/ml), 10% foetal calf serum or in serum free Quantum medium supplemented with streptomycin/penicillin (100 units of each/ml), kanamycin (100 units/ml).

[5] = system: Str/ort mice; assay: Histology and grading of articular cartilage lesions in Str/ort mice; format: in vivo, mouse
Procedure: At 10-13 weeks of age, 21 male Str/ort mice (n=7/group) were assigned randomly to vehicle, hylin-betaine and xantho-betaine groups and were treated intraperitoneally 18 weeks with either vehicle (5% DMSO in 95% peanut oil), 50 mg/kg compound of Example 1 (“hylin-betaine”) in 5% DMSO and 95% peanut oil or 50 mg/kg compound of Example 2 (“xantho-betaine”) in 5% DMSO and 95% peanut oil. Dissected right knees were fixed in neutral buffered formalin, decalcified (Immunocal, Quartett, Berlin), wax-embedded and 6 μm coronal sections cut. Multiple sections (five/slide) from 120 μm intervals across the whole joint were stained with Tollidine blue (0.1% in 0.1 M acetate buffer, pH 5.6) and AC lesion severity graded. Sections from right vehicle, hylin-betaine and xantho-betaine treated Str/ort joints were stained with Safranin O. Sections were dewaxed, and AC lesion severity was scored in Str/ort mice by the methods of Chambers et al., (Chambers et al Expression of collagen and aggrecan genes in normal and osteoarthritic murine knee joints. Osteoarthritis and cartilage/OARS, Osteoarthritis Research Society. 2002; 10(1):51-61) consistent with an internationally-recognized system. Briefly, grade 0: normal; grade 1: rough surface or superficial zone lesions; grade 2: lesion down to the intermediate zone; grade 3: lesions down to tidemark or loss of AC; grades 4 and 5: AC loss across between 20% and 50% or 50-80% of condylar surface; grade 6: loss with subchondral bone exposure. Multiple slides (˜10), each containing five 6 μm sections sampled at 120 μm intervals spanning each entire joint were graded. Grading in each joint compartment (lateral/medial, tibia/femur) allowed for a maximum (most severe) grade to be assigned in each section, and used to produce an overall ‘average’ maximum grade in each group of mice, for the entire joint and for each compartment. In addition, a mean score was produced for each joint and for each compartment and these similarly used to produce an overall ‘average’ mean grade in each group of mice. Mean grades provide a measure of the ‘extent’ of AC lesion (representing relative volume) in each joint/compartment.

COc1cc(O)c(CC=C(C)C)c(O)c1C(=O)/C=C/c1ccc(OC(=O)C[N+](C)(C)C)cc1.[Cl-] [Xantho-betaine, (E)-2-(4-(3-(2,4-dihydroxy-6-methoxy-3-(3-methylbut-2-en-1-yl)phenyl)-3-oxoprop-1-en-1-yl)phenoxy)-N,N,N-trimethyl-2-oxoethanaminium chloride]
effect on cortical bone (overall) [1]: significantly alter | reduction of shedding of proteoglycan into the medium [2]: more effective | IC50 [3]: 18 µM | inhibition of hyaluronan export ([3]; culture supernatant after 2 days, comparison with parent compound, particularly below 3 μM): slightly less effective than xanthohumol | IC50 [4]: 275 µM | effect on articular cartilage lesions / development of OA (overall) ([5]; 50 mg/kg intraperitoneally, 18 weeks, vs vehicle): no such protection | maximum OA score ([5]; vs vehicle treated Str/ort mice): not found to be statistically significant
